In patent US20130005696A1, “BUFADIENOLIDE DERIVATIVES, PREPARING PROCESS THEREOF, COMPOSITION COMPRISING THE SAME AND THE USE THEREOF” (priority 2011, published 2013):

What was measured:
[1] = test system: human-derived lung cancer H460 xenograft; experiment: Therapeutic effect against H460 xenograft in nude mice; format: in vivo, Balb/c nude mice; conditions: QOD × 21 d
Experimental: (§1) This experiment is to investigate the in vivo inhibitory effect of II1E-01.HCl on growth of human-derived hepatic carcinoma HepG2 cell, human-derived breast carcinoma MDA-MB-231 cell, human-derived lung carcinoma H460 cell, human-derived colon carcinoma HCT-116 cell, human-derived […] MV-4-11 cell xenografts in nude mice.
(§2) Formulation of solvent control (5% anhydrous ethanol & 5% aqueous glucose solution): 2.5 mL anhydrous ethanol was added into a 50 mL tube, followed by addition of 47.5 mL 5% glucose solution for injection followed by shaking, and stored at room temperature before use.
(§3) Formulation of the preparations of the compounds to be tested: formulations with concentrations of 0.4 mg/mL and 0.6 mg/mL were prepared respectively. An appropriate amount of II1E-01.HCl was weighted and put into a 50 mL tube, followed by addition of corresponding volume of solvent to get the desired concentration and mixed using a vortex mixer. After the solid was dissolved completely, the solution was subpackaged into 4 mL vials and stored at refrigerated condition (2-8° C.) until use.
(§4) Experimental animals: Balb/c nude mice (male, six weeks old).
NCI-H460 xenograft model was established by tumor implantation. 19 days after the implantation, the tumor size reached about 210 mm^3. The mice bearing the tumor were grouped by randomized block method according to the tumor size into 3 groups, which contain 10 mice in each group and include the group of solvent control, and groups of middle (4 mg/kg) and high (6 mg/kg) dosages of the testing compound II1E-01.HCl. In the solvent control group, 5% glucose solution was administered intravenously at tail once every other day (QOD). The testing compound was administered intravenously at tail once every other day (QOD). The animals were given the drugs for three weeks, during which the growth of tumor and the body weight of the mice were observed.
After continuously administering for 21 days (the 40th day after the implantation), the tumor weight and inhibition rate were calculated, and results are listed in Table 7.

[2] = test system: human-derived colon carcinoma HCT-116 xenograft; experiment: Therapeutic effect against HCT-116 xenograft in nude mice; format: in vivo, Balb/c nude mice; conditions: QOD × 14 d
Experimental: as §1, §2, §3, §4
HCT116 cells were in vitro cultured to be proliferated. The cells in the log phase of growth were collected, resuspended in RPMI-1640 serum-free medium, and then implanted subcutaneously into the axilla of the right forelimb of nude mice. After 14 days, the tumor size reached about 470 mm^3. The mice bearing the tumor were grouped by randomized block method according to the tumor size into 3 groups, including the group of solvent control and groups of 4 mg/kg and 6 mg/kg dosages of the testing compound II1E-01.HCl. In the solvent control group, glucose injection was administered intravenously at tail once every other day (QOD). The testing compound II1E-01.HCl was administered intravenously (iv) at tail once every other day (QOD). The animals were given the drugs for 14 days, during which, the growth of tumor and the body weight of the mice were observed.
After continuously administering for 14 days (the 28th day after the implantation), the tumor weight and inhibition rate were calculated, and results are listed in Table 8.

[3] = test system: LoVo human colon carcinoma cell line; experiment: In vitro antitumor activity assay (SRB), LoVo; format: cell-based; conditions: Table 2, read-out: IC50, inhibition of cell proliferation, LoVo
Text: HeLa human cervical carcinoma cell line, A-549 human non-small cell lung carcinoma cell line, NCI-H2228 human lung carcinoma cell line, NCI-H460 human lung carcinoma cell line, MDA-MB-231 human breast carcinoma cell line, MCF-7 human breast carcinoma cell line, Bel-7402 human hepatic carcinoma cell line, Hep3B human hepatic carcinoma cell line, QGY-7703 human hepatic carcinoma cell line, MV-4-11 human leukemic cell line, DAUDI human leukemic cell line, Jurkat human leukemic cell line, A498 renal carcinoma cell line, LoVo human colon carcinoma cell line, HCT1116 human colon carcinoma cell line, A431 human skin carcinoma cell line, PANC-1 human pancreatic carcinoma cell line, U87-MG human brain carcinoma cell line, SH-SY5Y human brain carcinoma cell line, RPMI-8226 human bone carcinoma cell line, HT1080 human fibrosarcoma cell line, PC-3 human prostatic carcinoma cell line, AGS human gastric adenocarcinoma cell line, and BGC-823 human gastric adenocarcinoma cell line were purchased from the Cell Bank of the Chinese Academy of Sciences.
The positive control is bufalin (formulated according to the common method), its purity is 98% or more by HPLC-UV and its structure is identified by NMR. The compounds to be tested and the positive control were diluted with normal saline with a concentration gradient of 10^−4 M, 10^−5 M, 10^−6 M, 10^−7 M and 10^−8 M.
According to cell growth rate, tumor cells in the log phase of growth were seeded into 96-well culture plates at 100 μL per well, and allowed to attach for 24 hours, followed by addition of a test compound or positive control at 10 μL per well. For each concentration, the test was carried out in triplicate wells. Solvent control wells with addition of normal saline into cell culture and a blank well containing only cell culture medium but without cells for zeroing were also included. The tumor cells were incubated for 72 hours at 37° C. under 5% CO2, and then the culture medium (RPMI-1640) was removed. The cells were fixed with 10% cool TCA by incubating for 1 h at 4° C., washed with distilled water for 5 times, and dried naturally in the air. A solution of SRB (Sigma) (4 mg/mL) in 1% glacial acetic acid was added at 100 μL per well, and the cells were stained for 15 minutes at room temperature, and the supernatant was discarded. The plates were washed for 5 times with 1% acetic acid, and dried in air. Finally, Tris solution was added at 150 μL per well, and the absorbance (A) was measured at a wavelength of 515 nm using a microplate reader. The growth inhibition on tumor cell proliferation was calculated according to the following equation:
Growth Inhibition (%)=[(Absorbance of negative control−Absorbance of blank)−(Absorbance of sample−Absorbance of blank)]/(Absorbance of negative control−Absorbance of blank)×100%
Drug concentration: 10 μM, 1 μM, 0.1 μM, 10 nM, 1 nM, 0.1 nM.
IC50 was fitted by GraphPad Prism 4.

[4] = 4 mg/kg iv, listed as II1E-01.HCl, 4 mg/kg
[5] = 6 mg/kg iv, listed as II1E-01.HCl, 6 mg/kg

Row | SMILES | Tumor Weight(g) Mean ± SE ([1]; 4 mg/kg iv) [g] | Inhibition Rate (%) ([1]; 4 mg/kg iv, 4 mg/kg) | Inhibition Rate (%) [1, 4] [%] | Tumor Weight(g) Mean ± SE ([1]; 6 mg/kg iv) [g] | Inhibition Rate (%) ([1]; 6 mg/kg iv, 6 mg/kg) | Inhibition Rate (%) [1, 5] [%] | Tumor Weight(g) Mean ± SE ([2]; 4 mg/kg iv) [g] | Inhibition Rate (%) ([2]; 4 mg/kg iv, 4 mg/kg) | Inhibition Rate (%) [2, 4] [%] | Tumor Weight(g) Mean ± SE ([2]; 6 mg/kg iv) [g] | Inhibition Rate (%) ([2]; 6 mg/kg iv, 6 mg/kg) | Inhibition Rate (%) [2, 5] [%] | IC50 [3] [nM]
1 | C[C@]12CC[C@H](OC(=O)NC3CCNCC3)C[C@H]1CC[C@@H]1[C@@H]2CC[C@]2(C)[C@@H](c3ccc(=O)oc3)CC[C@]12O.Cl [II1E-01•HCl] | 0.5125 ± 0.0307 | 61.94 | 61.94 | 0.3246 ± 0.0692 | 75.90 | 75.90 | 0.8017 ± 0.0480 | 36.82 | 36.82 | 0.4147 ± 0.0212 | 67.33 | 67.33 | –
2 | C[C@]12CC[C@H](O)C[C@H]1CC[C@@H]1[C@@H]2CC[C@]2(C)[C@@H](c3ccc(=O)oc3)CC[C@]12O [bufalin, reference compound] | – | – | – | – | – | – | – | – | – | – | – | – | 29.5 ± 1
